Experimental data: ChEMBL document CHEMBL3758169, “4-Aminoindazolyl-dihydrofuro[3,4-d]pyrimidines as non-covalent inhibitors of mutant epidermal growth factor receptor tyrosine kinase” (Bioorg Med Chem Lett, 2016)

Assays:
[1] = target: Hepatocyte growth factor receptor (Homo sapiens) (UniProt P08581); experiment: Inhibition of MET (unknown origin) at 100 nM
[2] = target: RAC-alpha serine/threonine-protein kinase (Homo sapiens) (UniProt P31749); experiment: Inhibition of AKT1 (unknown origin) at 100 nM
[3] = target: Tyrosine-protein kinase BTK (Homo sapiens) (UniProt Q06187); experiment: Inhibition of BTK (unknown origin) at 100 nM
[4] = target: Inhibitor of nuclear factor kappa-B kinase subunit beta (Homo sapiens) (UniProt O14920); experiment: Inhibition of IKKbeta (unknown origin) at 100 nM
[5] = target: Ephrin type-A receptor 2 (Homo sapiens) (UniProt P29317); experiment: Inhibition of EPHA2 (unknown origin) at 100 nM
[6] = target: Leucine-rich repeat serine/threonine-protein kinase 2 (Homo sapiens) (UniProt Q5S007); experiment: Inhibition of LRRK2 (unknown origin) at 100 nM
[7] = target: T1, Inhibitor of nuclear factor kappa-B kinase subunit epsilon (Homo sapiens) (UniProt Q14164); experiment: Inhibition of IKKepsilon (unknown origin) at 100 nM
T1 sequence (whole entry): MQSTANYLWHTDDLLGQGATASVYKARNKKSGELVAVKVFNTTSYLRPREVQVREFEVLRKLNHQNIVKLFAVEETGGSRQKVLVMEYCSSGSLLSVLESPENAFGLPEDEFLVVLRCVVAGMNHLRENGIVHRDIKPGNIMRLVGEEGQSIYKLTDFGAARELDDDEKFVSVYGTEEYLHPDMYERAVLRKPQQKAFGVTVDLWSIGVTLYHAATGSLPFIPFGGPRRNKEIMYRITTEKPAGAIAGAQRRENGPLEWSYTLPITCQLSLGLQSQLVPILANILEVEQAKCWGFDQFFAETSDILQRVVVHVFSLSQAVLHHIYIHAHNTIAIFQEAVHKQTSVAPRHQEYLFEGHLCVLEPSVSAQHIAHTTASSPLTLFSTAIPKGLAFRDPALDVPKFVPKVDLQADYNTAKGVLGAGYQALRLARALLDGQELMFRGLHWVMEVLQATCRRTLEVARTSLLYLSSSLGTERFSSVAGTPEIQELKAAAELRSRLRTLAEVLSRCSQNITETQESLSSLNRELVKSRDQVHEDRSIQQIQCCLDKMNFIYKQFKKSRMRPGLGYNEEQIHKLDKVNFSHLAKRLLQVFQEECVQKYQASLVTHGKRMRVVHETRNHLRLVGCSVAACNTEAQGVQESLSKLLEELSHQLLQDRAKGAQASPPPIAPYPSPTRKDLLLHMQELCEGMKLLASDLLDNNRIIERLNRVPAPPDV

[8] = target: Receptor-type tyrosine-protein kinase FLT3 (Homo sapiens) (UniProt P36888); experiment: Inhibition of FLT3 (unknown origin) at 100 nM
[9] = target: Tyrosine-protein kinase Lck (Homo sapiens) (UniProt P06239); experiment: Inhibition of LCK (unknown origin) at 100 nM
[10] = target: Tyrosine-protein kinase SYK (Homo sapiens) (UniProt P43405); experiment: Inhibition of SYK (unknown origin) at 100 nM
[11] = target: Non-receptor tyrosine-protein kinase TYK2 (Homo sapiens) (UniProt P29597); experiment: Inhibition of TYK2 (unknown origin) at 100 nM
[12] = target: Serine/threonine-protein kinase PAK 4 (Homo sapiens) (UniProt O96013); experiment: Inhibition of PAK4 (unknown origin) at 100 nM
[13] = target: Epidermal growth factor receptor (Homo sapiens, UniProt P00533, L858R/T790M); experiment: Inhibition of EGFR T790M/L858R mutant (unknown origin); format: protein assay
[14] = target: Serine/threonine-protein kinase D1 (Homo sapiens) (UniProt Q15139); experiment: Inhibition of PKD1 (unknown origin) at 100 nM
[15] = target: Tyrosine-protein kinase ITK/TSK (Homo sapiens) (UniProt Q08881); experiment: Inhibition of ITK (unknown origin) at 100 nM
[16] = target: Ribosomal protein S6 kinase alpha-1 (Homo sapiens) (UniProt Q15418); experiment: Inhibition of RSK1 (unknown origin) at 100 nM
[17] = target: Insulin receptor (Homo sapiens) (UniProt P06213); experiment: Inhibition of INSR (unknown origin) at 100 nM
[18] = target: Tyrosine-protein kinase ABL1 (Homo sapiens) (UniProt P00519); experiment: Inhibition of ABL (unknown origin) at 100 nM
[19] = target: Tyrosine-protein kinase Fyn (Homo sapiens) (UniProt P06241); experiment: Inhibition of FYN (unknown origin) at 100 nM
[20] = target: Epidermal growth factor receptor (Homo sapiens, UniProt P00533, L858R); experiment: Inhibition of EGFR L858R mutant (unknown origin); format: protein assay
[21] = target: Proto-oncogene tyrosine-protein kinase Src (Homo sapiens) (UniProt P12931); experiment: Inhibition of SRC (unknown origin) at 100 nM
[22] = target: T2, Epidermal growth factor receptor (Homo sapiens, UniProt P00533); experiment: Inhibition of EGFR deletion (746 to 750 residues) mutant (unknown origin); format: protein assay
[23] = target: T2, Epidermal growth factor receptor; experiment: Inhibition of EGFR T790M/deletion (746 to 750 residues) mutant (unknown origin); format: protein assay
[24] = tested on: Epidermal growth factor receptor (Homo sapiens), P00533 [L858R,T790M]; experiment: Inhibition of EGFR T790M/L858R double mutant (unknown origin) at 100 nM; format: protein assay
[25] = tested on: Epidermal growth factor receptor (Homo sapiens), P00533 [L861Q]; experiment: Inhibition of EGFR L861Q mutant (unknown origin) at 100 nM; format: protein assay
[26] = target: CDK8/Cyclin C (Homo sapiens) (UniProt P49336+P24863); experiment: Inhibition of CDK8/cyclinC (unknown origin) at 100 nM; format: protein-complex assay
[27] = target: MAP kinase-activated protein kinase 2 (Homo sapiens) (UniProt P49137); experiment: Inhibition of MAPKAPK2 (unknown origin) at 100 nM
[28] = target: Casein kinase I isoform alpha (Homo sapiens) (UniProt P48729); experiment: Inhibition of CK1alpha1 (unknown origin) at 100 nM
[29] = target: Dual specificity mitogen-activated protein kinase kinase 1 (Homo sapiens) (UniProt Q02750); experiment: Inhibition of MEK1 (unknown origin) at 100 nM
[30] = target: Tyrosine-protein kinase JAK2 (Homo sapiens) (UniProt O60674); experiment: Inhibition of JAK2 JH1JH2 domain (unknown origin) at 100 nM
[31] = target: Vascular endothelial growth factor receptor 2 (Homo sapiens) (UniProt P35968); experiment: Inhibition of KDR (unknown origin) at 100 nM
[32] = target: Mitogen-activated protein kinase 1 (Homo sapiens) (UniProt P28482); experiment: Inhibition of ERK2 (unknown origin) at 100 nM
[33] = target: Macrophage colony-stimulating factor 1 receptor (Homo sapiens) (UniProt P07333); experiment: Inhibition of CSF1R (unknown origin) at 100 nM
[34] = target: Tyrosine-protein kinase Lyn (Homo sapiens) (UniProt P07948); experiment: Inhibition of LYN (unknown origin) at 100 nM

T2 sequence (P00533 25-1210 limits assumed, stated change not applied): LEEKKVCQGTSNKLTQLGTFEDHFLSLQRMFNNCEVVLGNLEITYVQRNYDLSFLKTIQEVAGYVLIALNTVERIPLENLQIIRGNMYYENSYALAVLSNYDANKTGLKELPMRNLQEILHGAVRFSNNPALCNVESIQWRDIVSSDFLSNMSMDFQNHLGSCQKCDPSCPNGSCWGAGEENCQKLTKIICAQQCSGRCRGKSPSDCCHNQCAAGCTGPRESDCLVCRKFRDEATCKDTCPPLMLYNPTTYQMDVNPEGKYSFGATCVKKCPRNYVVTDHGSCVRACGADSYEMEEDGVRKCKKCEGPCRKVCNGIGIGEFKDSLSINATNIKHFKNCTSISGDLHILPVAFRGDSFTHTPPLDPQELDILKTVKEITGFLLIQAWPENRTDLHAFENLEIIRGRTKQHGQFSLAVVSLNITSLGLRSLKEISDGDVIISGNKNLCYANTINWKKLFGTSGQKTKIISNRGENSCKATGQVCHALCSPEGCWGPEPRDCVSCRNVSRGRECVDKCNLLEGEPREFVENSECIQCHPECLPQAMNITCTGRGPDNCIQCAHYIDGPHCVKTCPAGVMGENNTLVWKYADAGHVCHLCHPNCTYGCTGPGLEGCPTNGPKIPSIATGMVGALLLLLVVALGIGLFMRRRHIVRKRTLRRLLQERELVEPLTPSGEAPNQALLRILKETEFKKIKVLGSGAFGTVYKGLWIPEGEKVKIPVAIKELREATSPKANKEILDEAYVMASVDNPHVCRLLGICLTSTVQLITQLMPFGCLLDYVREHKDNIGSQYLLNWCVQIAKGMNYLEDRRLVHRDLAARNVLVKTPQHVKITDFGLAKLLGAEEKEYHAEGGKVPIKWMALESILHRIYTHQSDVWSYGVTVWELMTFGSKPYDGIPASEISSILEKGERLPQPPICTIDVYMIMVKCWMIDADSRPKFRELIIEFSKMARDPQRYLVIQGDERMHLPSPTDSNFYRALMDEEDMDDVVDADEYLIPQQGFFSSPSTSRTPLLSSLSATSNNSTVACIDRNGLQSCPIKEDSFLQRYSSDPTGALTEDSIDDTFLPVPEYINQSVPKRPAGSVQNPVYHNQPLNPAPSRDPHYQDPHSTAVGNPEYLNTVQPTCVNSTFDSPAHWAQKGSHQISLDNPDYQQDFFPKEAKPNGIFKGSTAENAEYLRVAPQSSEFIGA
Sequence of Epidermal growth factor receptor (Homo sapiens, UniProt P00533, L858R/T790M) (P00533 25-1210 T790M/L858R limits assumed): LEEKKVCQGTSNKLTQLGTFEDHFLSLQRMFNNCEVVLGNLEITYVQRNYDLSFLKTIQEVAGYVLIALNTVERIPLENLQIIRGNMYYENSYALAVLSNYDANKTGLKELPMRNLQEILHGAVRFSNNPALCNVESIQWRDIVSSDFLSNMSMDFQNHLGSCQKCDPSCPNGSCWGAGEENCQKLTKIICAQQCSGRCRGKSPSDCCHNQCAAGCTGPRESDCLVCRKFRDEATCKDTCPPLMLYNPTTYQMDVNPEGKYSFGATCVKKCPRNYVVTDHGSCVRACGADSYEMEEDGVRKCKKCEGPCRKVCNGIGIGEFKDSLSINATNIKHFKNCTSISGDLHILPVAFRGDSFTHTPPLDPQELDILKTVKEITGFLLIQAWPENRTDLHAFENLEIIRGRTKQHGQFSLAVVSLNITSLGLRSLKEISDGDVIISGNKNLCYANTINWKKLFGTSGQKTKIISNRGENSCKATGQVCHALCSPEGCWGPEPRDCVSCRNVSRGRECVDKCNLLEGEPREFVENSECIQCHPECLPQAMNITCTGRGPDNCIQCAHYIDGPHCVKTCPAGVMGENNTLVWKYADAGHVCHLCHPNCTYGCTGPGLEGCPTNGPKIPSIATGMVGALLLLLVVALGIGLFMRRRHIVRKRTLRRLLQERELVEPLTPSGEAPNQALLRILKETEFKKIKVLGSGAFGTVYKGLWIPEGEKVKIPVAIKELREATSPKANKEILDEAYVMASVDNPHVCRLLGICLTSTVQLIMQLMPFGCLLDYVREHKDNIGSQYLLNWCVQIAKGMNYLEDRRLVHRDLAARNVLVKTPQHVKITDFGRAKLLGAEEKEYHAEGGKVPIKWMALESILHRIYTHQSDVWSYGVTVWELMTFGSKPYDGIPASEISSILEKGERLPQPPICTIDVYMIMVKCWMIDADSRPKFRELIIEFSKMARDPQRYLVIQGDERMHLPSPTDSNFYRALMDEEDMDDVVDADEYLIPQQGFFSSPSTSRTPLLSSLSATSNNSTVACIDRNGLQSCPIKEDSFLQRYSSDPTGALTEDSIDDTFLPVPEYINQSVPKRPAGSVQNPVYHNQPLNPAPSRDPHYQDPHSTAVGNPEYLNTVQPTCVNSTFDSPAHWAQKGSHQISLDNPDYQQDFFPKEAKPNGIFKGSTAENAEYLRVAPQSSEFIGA
Sequence of Epidermal growth factor receptor (Homo sapiens), P00533 [L858R,T790M] (P00533 whole entry T790M/L858R, looked up): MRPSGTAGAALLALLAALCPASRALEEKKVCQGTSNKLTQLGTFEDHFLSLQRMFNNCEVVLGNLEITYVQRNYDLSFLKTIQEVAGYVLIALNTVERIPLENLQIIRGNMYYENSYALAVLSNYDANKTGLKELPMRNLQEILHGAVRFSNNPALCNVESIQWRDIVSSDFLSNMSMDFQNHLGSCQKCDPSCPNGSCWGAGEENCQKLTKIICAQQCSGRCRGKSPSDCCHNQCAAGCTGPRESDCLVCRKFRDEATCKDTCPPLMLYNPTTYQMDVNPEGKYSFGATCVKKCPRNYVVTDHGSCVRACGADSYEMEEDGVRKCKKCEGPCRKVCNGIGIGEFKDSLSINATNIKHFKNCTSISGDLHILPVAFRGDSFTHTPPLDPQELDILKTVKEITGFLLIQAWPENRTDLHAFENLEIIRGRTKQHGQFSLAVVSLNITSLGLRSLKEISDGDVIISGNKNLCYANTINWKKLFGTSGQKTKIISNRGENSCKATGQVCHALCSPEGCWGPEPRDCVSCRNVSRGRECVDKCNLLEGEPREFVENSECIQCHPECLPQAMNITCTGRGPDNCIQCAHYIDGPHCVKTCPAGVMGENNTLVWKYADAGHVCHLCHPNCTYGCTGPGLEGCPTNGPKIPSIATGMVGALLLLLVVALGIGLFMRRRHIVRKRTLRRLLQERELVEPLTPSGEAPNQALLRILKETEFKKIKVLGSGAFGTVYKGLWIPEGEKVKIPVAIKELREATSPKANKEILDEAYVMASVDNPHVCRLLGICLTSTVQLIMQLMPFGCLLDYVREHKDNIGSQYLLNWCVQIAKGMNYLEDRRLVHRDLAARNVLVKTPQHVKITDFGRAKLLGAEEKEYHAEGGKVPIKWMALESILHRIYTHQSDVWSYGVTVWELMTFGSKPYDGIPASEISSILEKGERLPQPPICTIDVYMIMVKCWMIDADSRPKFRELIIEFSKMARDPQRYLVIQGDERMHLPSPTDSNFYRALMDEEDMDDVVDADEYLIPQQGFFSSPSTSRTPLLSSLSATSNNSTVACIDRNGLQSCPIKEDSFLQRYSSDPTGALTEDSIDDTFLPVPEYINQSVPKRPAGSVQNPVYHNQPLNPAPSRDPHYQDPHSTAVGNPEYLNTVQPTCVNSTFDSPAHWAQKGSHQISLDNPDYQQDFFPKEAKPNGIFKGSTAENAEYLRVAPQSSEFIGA
Sequence of Non-receptor tyrosine-protein kinase TYK2 (Homo sapiens) (P29597 whole entry): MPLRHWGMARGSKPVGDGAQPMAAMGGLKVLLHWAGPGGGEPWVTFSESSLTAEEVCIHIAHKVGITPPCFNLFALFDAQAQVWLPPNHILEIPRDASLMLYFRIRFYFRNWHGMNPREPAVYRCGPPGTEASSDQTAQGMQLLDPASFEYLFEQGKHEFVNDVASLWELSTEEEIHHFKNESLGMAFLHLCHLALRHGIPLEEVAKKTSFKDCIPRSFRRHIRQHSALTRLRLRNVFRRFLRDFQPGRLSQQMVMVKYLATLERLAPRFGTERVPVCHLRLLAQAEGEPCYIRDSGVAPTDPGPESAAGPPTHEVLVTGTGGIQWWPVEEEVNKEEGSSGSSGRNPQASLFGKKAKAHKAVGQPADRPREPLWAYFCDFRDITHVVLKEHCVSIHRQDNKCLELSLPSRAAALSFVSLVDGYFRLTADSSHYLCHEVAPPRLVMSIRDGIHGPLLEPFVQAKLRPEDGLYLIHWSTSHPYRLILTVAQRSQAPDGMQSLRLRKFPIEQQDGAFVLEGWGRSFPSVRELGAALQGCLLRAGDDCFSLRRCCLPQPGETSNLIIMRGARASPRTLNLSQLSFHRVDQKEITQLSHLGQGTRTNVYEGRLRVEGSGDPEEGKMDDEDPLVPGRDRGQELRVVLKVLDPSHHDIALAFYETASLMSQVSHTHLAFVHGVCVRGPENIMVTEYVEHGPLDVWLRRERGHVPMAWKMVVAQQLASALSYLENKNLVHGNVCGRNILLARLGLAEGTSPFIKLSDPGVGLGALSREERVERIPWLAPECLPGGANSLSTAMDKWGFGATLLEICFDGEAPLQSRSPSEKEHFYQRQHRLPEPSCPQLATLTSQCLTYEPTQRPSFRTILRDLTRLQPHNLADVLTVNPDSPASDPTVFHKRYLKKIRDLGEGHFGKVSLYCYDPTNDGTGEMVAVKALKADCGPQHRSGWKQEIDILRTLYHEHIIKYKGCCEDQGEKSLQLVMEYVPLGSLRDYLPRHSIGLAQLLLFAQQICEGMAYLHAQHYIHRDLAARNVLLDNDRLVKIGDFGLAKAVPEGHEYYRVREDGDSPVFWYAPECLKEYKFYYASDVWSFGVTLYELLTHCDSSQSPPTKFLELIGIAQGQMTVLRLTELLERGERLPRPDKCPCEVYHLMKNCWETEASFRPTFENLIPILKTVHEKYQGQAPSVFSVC
Sequence of Mitogen-activated protein kinase 1 (Homo sapiens) (P28482 whole entry): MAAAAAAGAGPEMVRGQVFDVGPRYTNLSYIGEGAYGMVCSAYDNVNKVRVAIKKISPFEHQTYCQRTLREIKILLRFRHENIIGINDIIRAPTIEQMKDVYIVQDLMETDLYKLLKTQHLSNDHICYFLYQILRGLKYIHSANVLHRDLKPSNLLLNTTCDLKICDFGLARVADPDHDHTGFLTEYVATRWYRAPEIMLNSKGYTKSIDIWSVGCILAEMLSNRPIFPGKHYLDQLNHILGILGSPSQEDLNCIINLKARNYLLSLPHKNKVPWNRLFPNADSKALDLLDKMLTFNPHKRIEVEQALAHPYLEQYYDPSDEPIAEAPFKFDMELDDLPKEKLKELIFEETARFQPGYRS

Structure (SMILES)	inhibition [1] [%]	inhibition [2] [%]	inhibition [3] [%]	inhibition [4] [%]	inhibition [5] [%]	inhibition [6] [%]	inhibition [7] [%]	inhibition [8] [%]	inhibition [9] [%]	inhibition [10] [%]	inhibition [11] [%]	inhibition [12] [%]	Ki [13] [nM]	inhibition [14] [%]	inhibition [15] [%]	inhibition [16] [%]	inhibition [17] [%]	inhibition [18] [%]	inhibition [19] [%]	Ki [20] [nM]	other results
CC1(C)OCc2c(Nc3n[nH]c4c(Cl)cccc34)nc(-c3cn[nH]c3)nc21	7.7	11.1	17	7	11.8	7.5	3.2	67.3	86.9	7	2	-3.1	2	8.4	2	19.5	2	35.3	82	1.3	inhibition [21]: 66.5%; Ki [22]: 0.4 nM; Ki [23]: 1.3 nM; inhibition [24]: 91.5%; inhibition [25]: 95.2%; inhibition [26]: 11.7%; inhibition [27]: 2.1%; inhibition [28]: -3.3%; inhibition [29]: 4.3%; inhibition [30]: 14%; inhibition [31]: 99.3%; inhibition [32]: -3.5%; inhibition [33]: 19.1%; inhibition [34]: 94%
CC1(C)OCc2c(Nc3n[nH]c4ccccc34)nc(-c3cn[nH]c3)nc21	7.9	3.5	19.8	4.8	12.2	13.2	-8.7	16.5	50.6	0.4	4.9	0.2	2	2.1	4	13.9	5.4	54.1	79.6	0.5	inhibition [21]: 47.3%; Ki [22]: 0.2 nM; Ki [23]: 1.6 nM; inhibition [24]: 95.9%; inhibition [25]: 99.7%; inhibition [26]: 7.9%; inhibition [27]: 1.9%; inhibition [28]: 6.9%; inhibition [29]: 2%; inhibition [30]: 1.9%; inhibition [31]: 97.2%; inhibition [32]: 1.2%; inhibition [33]: 17.5%; inhibition [34]: 89.9%
